Values quoted from earlier work, collected in patent publication US20070238696A1, “Dosage unit for cardioprotection” (priority 2000, published 2007).

Details: men, median intake 419 IU/day compared to median intake 6 IU/day; followed for four years

**Q.** Which relative risk reduction does the source give for vitamin E here?
**A.** The relative risk reduction was 44%.
